Reference: patent US20050107289A1, “Anti-microbial peptides and compositions” (priority 2001, published 2005)
Non-standard residues stand in square brackets, D forms with d. Residues, ends and D or L forms follow the SMILES beside them.

Assays:
E. coli JM109(DE3) = type: cell-based, Escherichia coli; details: JM109
Description: (§1) The antimicrobial activity of the peptides was determined using a broth dilution assay essentially as descried in the guidelines of the National Committee for […] (NCCLS) [National Committee for Clinical Laboratory Standards. Methods for dilution antimicrobial susceptibility tests for bacteria that grow aerobically. Fourth edition. Approved Standard (1997). Document M7-A4. […] The microdilution method has the advantages of requiring less amount of peptide for each assay and the possibility of multiple simultaneous inoculations and was used in most studies. Several of the strains of bacteria tested are further described in Table 3.
(§2) Preparation of peptide solutions. Stock peptide solutions were prepared in 5% DMSO in aq. sucrose (9%). Determination of peptide concentrations was done by quantitative HPLC analysis using known concentrations of internal standards and/or by measuring UV absorption of tryptophane-containing peptide solutions in H2O (λ=280 εTrp: 5690). Serial 2-fold dilutions were made in the above DMSO/aq. sucrose (9%) mixture with concentrations ranging approximately 400-2 μg/ml and aliquots were dispensed in test tubes (100 μl) for the macrodilution test or in microtiter plates (20 μl) for the microdilution assays.
(§3) Inoculum preparation. Overnight cultures of different microorganisms grown in suitable media were diluted 4000 times to an approximate inoculum size of 2.5×10^5 cfu/ml.
(§4) Macrodilution method. Macrodilution methods were performed using procedures similar to those described in the National Committee for Clinical Laboratory Standards. Methods for dilution antimicrobial susceptibility tests for bacteria that grow aerobically. Fourth edition. Approved Standard (1997). Document M7-A4. (NCCLS,Villanova, Pa., 1997). Two ml aliquots of the above inoculum were dispensed to test tubes containing different peptide solutions.
(§5) Microdilution method. Microdilution methods were performed using procedures similar to those described in the National Committee for Clinical Laboratory Standards. Methods for dilution antimicrobial susceptibility tests for bacteria that grow aerobically. Fourth edition. Approved Standard (1997). Document M7-A4.

[1] = tested on: S. aureus (MRSA) ATCC 33591; type: cell-based, Staphylococcus aureus; details: for MRSA MIC / S. aureus (MRSA) MIC: ATCC 33591; for MRSA (in vitro activity): Table 9, media a: anti-microbial media-3 (AM-3)
How it was run: (§6)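 MICs come from NCCLS-style (M7-A4) dilution testing, mostly microdilution, with an inoculum near 2.5×10^5 cfu/ml from 4000-fold-diluted overnight cultures. Peptide series were 2-fold steps spanning roughly 400–2 μg/ml, prepared in 9% aqueous sucrose with 5% DMSO.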

[2] = tested on: Bacillus cereus ATCC 11778; type: cell-based
Description: as §1, §2, §3, §4, §5

[3] = tested on: Streptococcus pneumoniae (ATCC 6301); type: cell-based
Description: as §1, §2, §3, §4, §5

murine red blood cells = assay: Red blood cell hemolysis; type: cell-based, mouse; details: for Hemolysis HD50: red cells of murine
How it was run: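 Washed murine erythrocytes at 5% in saline with 10% FBS were exposed to serial peptide dilutions for 30 min at 37° C. Supernatant absorbance at 560 nm was read, with saline as 0% and 1% Triton X-100 as 100% hemolysis.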

[4] = tested on: vancomycin-resistant Enterococus faecalis (VRE)(ATCC 51575); type: cell-based, Enterococcus faecalis; design: key to VRE (in vitro activity): peptide concentration in μg/ml (broth dilution assay); details: for VRE MIC: ATCC 51575; for VRE (in vitro activity): Table 9, media a: AM-3
How it was run: as §6

Row | SMILES | E. coli MIC (E. coli JM109(DE3)) [µg/mL] | MRSA MIC [1] [µg/mL] | S. aureus (MRSA) MIC [1] [µg/mL] | MRSA (in vitro activity) [1] | B. cerius MIC [2] [µg/mL] | S. pneum. MIC [3] [µg/mL] | RBC Hemolysis (HD50) (murine red blood cells) | VRE MIC [4] [µg/mL] | VRE (in vitro activity) [4] | Hemolysis HD50 (murine red blood cells) [µg/mL]
1 | CC(C)C[C@H]1NC(=O)[C@H](Cc2c[nH]c3ccccc23)NC(=O)[C@@H](CCCCN)NC(=O)[C@H](Cc2c[nH]cn2)NC(=O)[C@@H](CCCCN)NC(=O)[C@H](Cc2c[nH]c3ccccc23)NC(=O)[C@@H](CC(C)C)NC(=O)[C@H](Cc2c[nH]c3ccccc23)NC1=O [SEQ ID NO:22, KHKWLWLW] (cyclo([dK]H[dK]W[dL]W[dL]W)) | 80 | 10 | 10 | 10 | 8 | 8 | 30 | 10 | 10 | –
2 | CC(C)C[C@@H](N)C(=O)N[C@@H](Cc1c[nH]c2ccccc12)C(=O)N[C@H](CCCNC(=N)N)C(=O)N[C@@H](CCCNC(=N)N)C(=O)N[C@H](CCCCN)C(=O)N[C@@H](Cc1c[nH]c2ccccc12)C(=O)N[C@H](CC(C)C)C(=O)N[C@@H](Cc1c[nH]c2ccccc12)C(N)=O [SEQ ID NO:137, H-LWRRKWLW-NH2] (H-[dL]W[dR]R[dK]W[dL]W-NH2) | 4 | 5 | – | – | 9 | 20 | – | 40 | – | 100
3 | CC(C)C[C@H]1NC(=O)[C@H](Cc2c[nH]c3ccccc23)NC(=O)[C@@H](CCCCN)NC(=O)[C@H](CCCNC(=N)N)NC(=O)[C@@H](CCCNC(=N)N)NC(=O)[C@H](Cc2c[nH]c3ccccc23)NC(=O)[C@@H](CC(C)C)NC(=O)[C@H](CO)NC1=O [SEQ ID NO:112, [RRKWLSLW]] (cyclo([dR]R[dK]W[dL]S[dL]W)) | 12 | 12 | – | 12 | 13 | 12 | 100 | 50 | 50 | 100
4 | CC(C)C[C@@H](NC(=O)[C@H](Cc1c[nH]c2ccccc12)NC(=O)[C@@H](CC(C)C)NC(=O)[C@H](Cc1c[nH]c2ccccc12)NC(=O)[C@@H](CCCCN)NC(=O)[C@H](CCCCN)NC(=O)[C@H](N)CCCCN)C(=O)N[C@@H](Cc1c[nH]c2ccccc12)C(N)=O [SEQ ID NO:134, H-KKKWLWLW-NH2] (H-[dK]K[dK]W[dL]W[dL]W-NH2) | 3 | 30 | – | – | 19 | 80 | – | 100 | – | 100
5 | CC(C)C[C@@H](NC(=O)[C@H](Cc1c[nH]c2ccccc12)NC(=O)[C@@H](CC(C)C)NC(=O)[C@H](Cc1c[nH]c2ccccc12)NC(=O)[C@@H](CCCCN)NC(=O)[C@H](CCCNC(=N)N)NC(=O)[C@H](N)CCCNC(=N)N)C(=O)N[C@@H](Cc1c[nH]c2ccccc12)C(N)=O [SEQ ID NO:135, H-RRKWLWLW-NH2] (H-[dR]R[dK]W[dL]W[dL]W-NH2) | 4 | 20 | – | – | 19 | 40 | – | 100 | – | 100
6 | CC(C)C[C@H]1NC(=O)[C@H](Cc2c[nH]c3ccccc23)NC(=O)[C@@H](Cc2c[nH]cn2)NC(=O)[C@H](CCCCN)NC(=O)[C@@H](Cc2c[nH]cn2)NC(=O)[C@H](Cc2c[nH]c3ccccc23)NC(=O)[C@@H](CC(C)C)NC(=O)[C@H](Cc2c[nH]c3ccccc23)NC1=O [SEQ ID NO:21, cyclo-(D-His-Lys-D-His-Trp-D-Leu-Trp-D-Leu-Trp)] (cyclo(K[dH]W[dL]W[dL]W[dH])) | 15 | 12 | 12 | 12 | 4 | 19 | 25 | 16 | 16 | –
7 | CC(C)C[C@H]1NC(=O)[C@H](Cc2c[nH]c3ccccc23)NC(=O)[C@@H](CCCCN)NC(=O)[C@H](CCCNC(=N)N)NC(=O)[C@@H](CCCNC(=N)N)NC(=O)[C@H](Cc2c[nH]c3ccccc23)NC(=O)[C@@H](CC(C)C)NC(=O)[C@H](CCCCN)NC1=O [SEQ ID NO:111, [RRKWLKLW]] (cyclo([dR]R[dK]W[dL]K[dL]W)) | 6 | 12 | – | 12 | 23 | 25 | 100 | 80 | 80 | 100
8 | CC(=O)N[C@H](CC(C)C)C(=O)N[C@@H](Cc1c[nH]c2ccccc12)C(=O)N[C@H](CCCNC(=N)N)C(=O)N[C@@H](CCCNC(=N)N)C(=O)N[C@H](CCCCN)C(=O)N[C@@H](Cc1c[nH]c2ccccc12)C(=O)N[C@H](CC(C)C)C(=O)N[C@@H](Cc1c[nH]c2ccccc12)C(N)=O [SEQ ID NO:138, Ac-LWRRKWLW-NH2] (Ac-[dL]W[dR]R[dK]W[dL]W-NH2) | 7 | 15 | – | – | 20 | 20 | – | 100 | – | 100
9 | CC(C)C[C@H]1NC(=O)[C@H](Cc2c[nH]c3ccccc23)NC(=O)[C@@H](CCCCN)NC(=O)[C@H](CCCNC(=N)N)NC(=O)[C@@H](CCCNC(=N)N)NC(=O)[C@H](Cc2c[nH]c3ccccc23)NC(=O)[C@@H](CC(C)C)NC(=O)[C@H](CCC(=O)O)NC1=O [SEQ ID NO:109, [RRKWLELW]] (cyclo([dR]R[dK]W[dL]E[dL]W)) | 40 | 80 | – | 80 | 195 | 100 | 100 | 100 | 100 | 100
10 | CC(C)C[C@H]1NC(=O)[C@H](Cc2c[nH]c3ccccc23)NC(=O)[C@@H](CO)NC(=O)[C@H](CCCCN)NC(=O)[C@@H](CO)NC(=O)[C@H](Cc2c[nH]c3ccccc23)NC(=O)[C@@H](CC(C)C)NC(=O)[C@H](Cc2c[nH]c3ccccc23)NC1=O [SEQ ID NO:5, cyclo-(D-Ser-Lys-D-Ser-Trp-D-Leu-Trp-D-Leu-Trp)] (cyclo(K[dS]W[dL]W[dL]W[dS])) | 100 | 20 | 10 | 20 | > 30 | 30 | 30 | 20 | 20 | –
11 | CC(C)C[C@H]1NC(=O)[C@H](Cc2c[nH]c3ccccc23)NC(=O)[C@@H](CC(C)C)NC(=O)[C@H](Cc2c[nH]c3ccccc23)NC(=O)[C@@H](CC(=O)O)NC(=O)CNC(=O)[C@@H](CCCNC(=N)N)NC(=O)[C@H](Cc2c[nH]c3ccccc23)NC1=O [SEQ ID NO:7, RGDWLWLW] (cyclo([dR]G[dD]W[dL]W[dL]W)) | 100 | 100 | 100 | 100 | > 280 | 70 | 100 | 100 | 100 | –
